Experimental data as given in US20130338106A1, “COMPOUNDS INHIBITING LEUCINE-RICH REPEAT KINASE ENZYME ACTIVITY” (priority 2011, published 2013).

Experiments:
Format in all cases: biochemical
Conditions in all cases: tested at 10 uM, read-out: percent inhibition of the kinase activity
MST3 = target: T1, MST3 (Homo sapiens, UniProt Q9Y6E0); experiment: ProfilerPro Kinase Selectivity, MST3
T1 construct: purchased Caliper LifeSciences
Procedure: (§1) Kinome selectivity profiling was performed using two example compounds according to the manufacturer's instructions using Caliper LifeSciences' ProfilerPro Kinase Selectivity Assay Kits. Compounds prepared in Examples 1 and 7 were tested at 10 uM and data were recorded using the Caliper LabChip® EZ Reader™. Each compounds' percent inhibition of the kinase activity measured in this manner is reported in the following lists.

LYNB = target: T2, LYNB (Homo sapiens, UniProt P07948); experiment: ProfilerPro Kinase Selectivity, LYNB
T2 construct: purchased Caliper LifeSciences
Procedure: as §1

CAMK1A = target: T3, CAMK1A (Homo sapiens, UniProt Q14012); experiment: ProfilerPro Kinase Selectivity, CAMK1A
T3 construct: purchased Caliper LifeSciences
Procedure: as §1

KIT T670I = target: T4, KIT T670I (Homo sapiens, UniProt P10721, T670I); experiment: ProfilerPro Kinase Selectivity, KIT T670I
T4 construct: purchased Caliper LifeSciences
Procedure: as §1

MINK = target: T5, MINK (Homo sapiens, UniProt Q8N4C8); experiment: ProfilerPro Kinase Selectivity, MINK
T5 construct: purchased Caliper LifeSciences
Procedure: as §1

PRKX = target: T6, PRKX (Homo sapiens, UniProt P51817); experiment: ProfilerPro Kinase Selectivity, PRKX
T6 construct: purchased Caliper LifeSciences
Procedure: as §1

PRKCE = target: T7, PRKCE (Homo sapiens, UniProt Q02156); experiment: ProfilerPro Kinase Selectivity, PRKCE
T7 construct: purchased Caliper LifeSciences
Procedure: as §1

SYK = target: T8, SYK (Homo sapiens, UniProt P43405); experiment: ProfilerPro Kinase Selectivity, SYK
T8 construct: purchased Caliper LifeSciences
Procedure: as §1

ERK1 = target: T9, ERK1 (Homo sapiens, UniProt P27361); experiment: ProfilerPro Kinase Selectivity, ERK1
T9 construct: purchased Caliper LifeSciences
Procedure: as §1

PYK2 = target: T10, PYK2 (Homo sapiens, UniProt Q14289); experiment: ProfilerPro Kinase Selectivity, PYK2
T10 construct: purchased Caliper LifeSciences
Procedure: as §1

P38G = target: T11, P38G (Homo sapiens, UniProt P53778); experiment: ProfilerPro Kinase Selectivity, P38G
T11 construct: purchased Caliper LifeSciences
Procedure: as §1

ZIPK = target: T12, ZIPK (Homo sapiens, UniProt O43293); experiment: ProfilerPro Kinase Selectivity, ZIPK
T12 construct: purchased Caliper LifeSciences
Procedure: as §1

MST2 = target: T13, MST2 (Homo sapiens, UniProt Q13188); experiment: ProfilerPro Kinase Selectivity, MST2
T13 construct: purchased Caliper LifeSciences
Procedure: as §1

EPHA8 = target: T14, EPHA8 (Homo sapiens, UniProt P29322); experiment: ProfilerPro Kinase Selectivity, EPHA8
T14 construct: purchased Caliper LifeSciences
Procedure: as §1

CASEIN K1G2 = target: T15, CASEIN K1G2 (Homo sapiens, UniProt P78368); experiment: ProfilerPro Kinase Selectivity, CASEIN K1G2
T15 construct: purchased Caliper LifeSciences
Procedure: as §1

FLT4 = target: T16, FLT4 (Homo sapiens, UniProt P35916); experiment: ProfilerPro Kinase Selectivity, FLT4
T16 construct: purchased Caliper LifeSciences
Procedure: as §1

HGK = target: T17, HGK (Homo sapiens, UniProt O95819); experiment: ProfilerPro Kinase Selectivity, HGK
T17 construct: purchased Caliper LifeSciences
Procedure: as §1

PIM1 = target: T18, PIM1 (Homo sapiens, UniProt P11309); experiment: ProfilerPro Kinase Selectivity, PIM1
T18 construct: purchased Caliper LifeSciences
Procedure: as §1

ERK2 = target: T19, ERK2 (Homo sapiens, UniProt P28482); experiment: ProfilerPro Kinase Selectivity, ERK2
T19 construct: purchased Caliper LifeSciences
Procedure: as §1

EPHB1 = target: T20, EPHB1 (Homo sapiens, UniProt P54762); experiment: ProfilerPro Kinase Selectivity, EPHB1
T20 construct: purchased Caliper LifeSciences
Procedure: as §1

CHK1 = target: T21, CHK1 (Homo sapiens, UniProt O14757); experiment: ProfilerPro Kinase Selectivity, CHK1
T21 construct: purchased Caliper LifeSciences
Procedure: as §1

CAMK2A = target: T22, CAMK2A (Homo sapiens, UniProt Q9UQM7); experiment: ProfilerPro Kinase Selectivity, CAMK2A
T22 construct: purchased Caliper LifeSciences
Procedure: as §1

AKT1 = target: T23, AKT1 (Homo sapiens, UniProt P31749); experiment: ProfilerPro Kinase Selectivity, AKT1
T23 construct: purchased Caliper LifeSciences
Procedure: as §1

TSSK1 = target: T24, TSSK1 (Homo sapiens, UniProt Q9BXA7); experiment: ProfilerPro Kinase Selectivity, TSSK1
T24 construct: purchased Caliper LifeSciences
Procedure: as §1

IGF1R = target: T25, IGF1R (Homo sapiens, UniProt P08069); experiment: ProfilerPro Kinase Selectivity, IGF1R
T25 construct: purchased Caliper LifeSciences
Procedure: as §1

NEK1 = target: T26, NEK1 (Homo sapiens, UniProt Q96PY6); experiment: ProfilerPro Kinase Selectivity, NEK1
T26 construct: purchased Caliper LifeSciences
Procedure: as §1

PAK3 = target: T27, PAK3 (Homo sapiens, UniProt O75914); experiment: ProfilerPro Kinase Selectivity, PAK3
T27 construct: purchased Caliper LifeSciences
Procedure: as §1

MARK4 = target: T28, MARK4 (Homo sapiens, UniProt Q96L34); experiment: ProfilerPro Kinase Selectivity, MARK4
T28 construct: purchased Caliper LifeSciences
Procedure: as §1

RAF-1 = target: T29, RAF-1 (Homo sapiens, UniProt P04049); experiment: ProfilerPro Kinase Selectivity, RAF-1
T29 construct: purchased Caliper LifeSciences
Procedure: as §1

FLT1 = target: T30, FLT1 (Homo sapiens, UniProt P17948); experiment: ProfilerPro Kinase Selectivity, FLT1
T30 construct: purchased Caliper LifeSciences
Procedure: as §1

DCAMKL2 = target: T31, DCAMKL2 (Homo sapiens, UniProt Q8N568); experiment: ProfilerPro Kinase Selectivity, DCAMKL2
T31 construct: purchased Caliper LifeSciences
Procedure: as §1

PKD1 = target: T32, PKD1 (Homo sapiens, UniProt Q15139); experiment: ProfilerPro Kinase Selectivity, PKD1
T32 construct: purchased Caliper LifeSciences
Procedure: as §1

MELK = target: T33, MELK (Homo sapiens, UniProt Q14680); experiment: ProfilerPro Kinase Selectivity, MELK
T33 construct: purchased Caliper LifeSciences
Procedure: as §1

PKCI = target: T34, PKCI (Homo sapiens, UniProt P41743); experiment: ProfilerPro Kinase Selectivity, PKCI
T34 construct: purchased Caliper LifeSciences
Procedure: as §1

PRKCD = target: T35, PRKCD (Homo sapiens, UniProt Q05655); experiment: ProfilerPro Kinase Selectivity, PRKCD
T35 construct: purchased Caliper LifeSciences
Procedure: as §1

FGFR4 = target: T36, FGFR4 (Homo sapiens, UniProt P22455); experiment: ProfilerPro Kinase Selectivity, FGFR4
T36 construct: purchased Caliper LifeSciences
Procedure: as §1

CDK5/P25 = target: T37, CDK5/P25 (Homo sapiens, UniProt Q00535); experiment: ProfilerPro Kinase Selectivity, CDK5/P25
T37 construct: purchased Caliper LifeSciences
Procedure: as §1

RSK4 = target: T38, RSK4 (Homo sapiens, UniProt Q9UK32); experiment: ProfilerPro Kinase Selectivity, RSK4
T38 construct: purchased Caliper LifeSciences
Procedure: as §1

AURB = target: T39, AURB (Homo sapiens, UniProt Q96GD4); experiment: ProfilerPro Kinase Selectivity, AURB
T39 construct: purchased Caliper LifeSciences
Procedure: as §1

T20 sequence (P54762 18-984, species assumed): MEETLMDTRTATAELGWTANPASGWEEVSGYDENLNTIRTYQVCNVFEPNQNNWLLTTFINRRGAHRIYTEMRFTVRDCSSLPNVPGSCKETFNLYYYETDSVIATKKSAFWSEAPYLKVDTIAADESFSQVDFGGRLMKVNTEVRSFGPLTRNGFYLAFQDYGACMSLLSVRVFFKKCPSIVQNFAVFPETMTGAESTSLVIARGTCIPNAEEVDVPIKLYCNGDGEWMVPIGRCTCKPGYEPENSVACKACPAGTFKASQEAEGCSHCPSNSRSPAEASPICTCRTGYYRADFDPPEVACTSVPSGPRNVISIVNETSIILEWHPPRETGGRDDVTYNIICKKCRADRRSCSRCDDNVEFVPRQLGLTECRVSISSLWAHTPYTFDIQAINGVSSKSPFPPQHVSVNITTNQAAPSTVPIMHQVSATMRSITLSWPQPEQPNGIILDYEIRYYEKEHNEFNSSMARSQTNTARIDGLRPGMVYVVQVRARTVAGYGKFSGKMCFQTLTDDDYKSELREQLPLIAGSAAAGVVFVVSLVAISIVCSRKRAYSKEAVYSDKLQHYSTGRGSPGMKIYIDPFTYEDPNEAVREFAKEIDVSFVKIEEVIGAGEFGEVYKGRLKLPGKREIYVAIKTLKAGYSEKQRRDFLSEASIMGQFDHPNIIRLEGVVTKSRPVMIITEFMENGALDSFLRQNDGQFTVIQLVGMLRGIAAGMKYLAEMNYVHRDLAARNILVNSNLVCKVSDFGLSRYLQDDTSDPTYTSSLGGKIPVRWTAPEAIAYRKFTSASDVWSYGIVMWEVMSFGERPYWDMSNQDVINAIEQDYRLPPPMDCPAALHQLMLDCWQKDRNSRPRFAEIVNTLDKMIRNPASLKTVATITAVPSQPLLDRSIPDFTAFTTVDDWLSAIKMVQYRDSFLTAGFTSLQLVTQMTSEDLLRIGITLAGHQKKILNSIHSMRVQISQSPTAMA
T13 sequence (Q13188 whole entry, species assumed): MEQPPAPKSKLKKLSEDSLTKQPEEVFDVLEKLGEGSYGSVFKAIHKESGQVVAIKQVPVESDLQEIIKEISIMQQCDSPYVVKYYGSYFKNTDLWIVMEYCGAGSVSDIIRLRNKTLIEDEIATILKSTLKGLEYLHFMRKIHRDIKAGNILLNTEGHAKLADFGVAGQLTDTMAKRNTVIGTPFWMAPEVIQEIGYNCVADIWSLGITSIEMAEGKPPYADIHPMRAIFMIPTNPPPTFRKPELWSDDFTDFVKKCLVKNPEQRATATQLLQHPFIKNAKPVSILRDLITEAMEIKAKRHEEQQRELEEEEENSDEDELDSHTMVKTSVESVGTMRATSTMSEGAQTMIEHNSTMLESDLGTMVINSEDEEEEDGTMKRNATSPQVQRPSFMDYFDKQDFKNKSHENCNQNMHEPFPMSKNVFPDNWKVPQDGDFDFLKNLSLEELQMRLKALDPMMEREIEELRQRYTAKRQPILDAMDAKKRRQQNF
T32 sequence (Q15139 whole entry): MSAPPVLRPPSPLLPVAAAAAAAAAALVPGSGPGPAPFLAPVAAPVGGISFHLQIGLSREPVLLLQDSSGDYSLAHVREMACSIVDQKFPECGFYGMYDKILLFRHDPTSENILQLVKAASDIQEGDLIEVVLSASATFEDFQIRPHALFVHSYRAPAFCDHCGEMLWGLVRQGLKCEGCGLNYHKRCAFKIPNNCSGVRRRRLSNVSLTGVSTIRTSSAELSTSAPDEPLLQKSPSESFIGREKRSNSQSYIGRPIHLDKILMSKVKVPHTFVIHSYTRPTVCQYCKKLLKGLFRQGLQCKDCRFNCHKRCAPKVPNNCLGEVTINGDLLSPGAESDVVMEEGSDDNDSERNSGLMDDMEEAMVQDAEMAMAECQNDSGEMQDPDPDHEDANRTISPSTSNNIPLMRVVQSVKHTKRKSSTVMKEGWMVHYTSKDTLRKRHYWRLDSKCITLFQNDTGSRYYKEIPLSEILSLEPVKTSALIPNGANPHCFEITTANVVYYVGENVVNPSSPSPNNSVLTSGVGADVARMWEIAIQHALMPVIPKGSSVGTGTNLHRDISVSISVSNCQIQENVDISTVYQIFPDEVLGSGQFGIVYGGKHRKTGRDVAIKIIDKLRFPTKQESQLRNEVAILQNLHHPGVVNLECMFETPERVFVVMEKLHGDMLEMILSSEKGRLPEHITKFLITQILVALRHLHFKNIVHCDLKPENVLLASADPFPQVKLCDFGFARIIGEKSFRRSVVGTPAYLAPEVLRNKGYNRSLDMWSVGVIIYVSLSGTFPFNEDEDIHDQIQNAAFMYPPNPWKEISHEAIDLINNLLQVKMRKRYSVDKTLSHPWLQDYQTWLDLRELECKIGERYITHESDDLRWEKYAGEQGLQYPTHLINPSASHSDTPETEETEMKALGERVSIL
T9 sequence (P27361 whole entry, species assumed): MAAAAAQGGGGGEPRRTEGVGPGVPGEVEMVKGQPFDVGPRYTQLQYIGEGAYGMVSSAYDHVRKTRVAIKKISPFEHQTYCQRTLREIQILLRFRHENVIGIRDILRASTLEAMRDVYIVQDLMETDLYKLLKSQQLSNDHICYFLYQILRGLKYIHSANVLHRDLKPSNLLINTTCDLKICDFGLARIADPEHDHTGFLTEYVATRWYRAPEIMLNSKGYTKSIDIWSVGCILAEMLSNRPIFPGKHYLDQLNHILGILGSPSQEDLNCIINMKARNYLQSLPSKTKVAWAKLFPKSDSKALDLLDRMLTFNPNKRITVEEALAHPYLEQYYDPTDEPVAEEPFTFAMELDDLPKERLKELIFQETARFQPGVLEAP
T23 sequence (P31749 whole entry, species assumed): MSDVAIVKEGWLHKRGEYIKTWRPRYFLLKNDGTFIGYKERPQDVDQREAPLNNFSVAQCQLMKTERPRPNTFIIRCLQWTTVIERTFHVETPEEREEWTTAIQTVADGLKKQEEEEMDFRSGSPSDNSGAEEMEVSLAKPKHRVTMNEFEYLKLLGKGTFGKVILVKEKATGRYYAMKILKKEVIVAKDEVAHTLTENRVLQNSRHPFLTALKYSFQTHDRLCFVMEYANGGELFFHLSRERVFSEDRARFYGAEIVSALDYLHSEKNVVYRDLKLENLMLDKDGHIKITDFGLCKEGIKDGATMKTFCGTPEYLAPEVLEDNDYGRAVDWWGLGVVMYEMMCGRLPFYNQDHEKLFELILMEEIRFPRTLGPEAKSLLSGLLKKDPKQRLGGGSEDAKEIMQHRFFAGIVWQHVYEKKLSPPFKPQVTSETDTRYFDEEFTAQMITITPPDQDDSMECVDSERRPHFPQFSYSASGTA
T11 sequence (P53778 whole entry): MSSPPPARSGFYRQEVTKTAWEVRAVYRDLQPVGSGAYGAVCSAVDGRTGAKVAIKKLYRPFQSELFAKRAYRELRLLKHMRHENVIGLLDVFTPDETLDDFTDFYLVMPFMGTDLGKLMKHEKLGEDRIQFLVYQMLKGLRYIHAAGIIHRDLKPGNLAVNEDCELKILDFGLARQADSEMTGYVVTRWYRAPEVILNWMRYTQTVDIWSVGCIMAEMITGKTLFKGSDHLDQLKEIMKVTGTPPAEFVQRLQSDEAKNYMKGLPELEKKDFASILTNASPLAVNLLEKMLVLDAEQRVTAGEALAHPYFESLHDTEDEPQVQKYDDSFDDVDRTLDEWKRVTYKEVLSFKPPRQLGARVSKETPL
T26 sequence (Q96PY6 whole entry, species assumed): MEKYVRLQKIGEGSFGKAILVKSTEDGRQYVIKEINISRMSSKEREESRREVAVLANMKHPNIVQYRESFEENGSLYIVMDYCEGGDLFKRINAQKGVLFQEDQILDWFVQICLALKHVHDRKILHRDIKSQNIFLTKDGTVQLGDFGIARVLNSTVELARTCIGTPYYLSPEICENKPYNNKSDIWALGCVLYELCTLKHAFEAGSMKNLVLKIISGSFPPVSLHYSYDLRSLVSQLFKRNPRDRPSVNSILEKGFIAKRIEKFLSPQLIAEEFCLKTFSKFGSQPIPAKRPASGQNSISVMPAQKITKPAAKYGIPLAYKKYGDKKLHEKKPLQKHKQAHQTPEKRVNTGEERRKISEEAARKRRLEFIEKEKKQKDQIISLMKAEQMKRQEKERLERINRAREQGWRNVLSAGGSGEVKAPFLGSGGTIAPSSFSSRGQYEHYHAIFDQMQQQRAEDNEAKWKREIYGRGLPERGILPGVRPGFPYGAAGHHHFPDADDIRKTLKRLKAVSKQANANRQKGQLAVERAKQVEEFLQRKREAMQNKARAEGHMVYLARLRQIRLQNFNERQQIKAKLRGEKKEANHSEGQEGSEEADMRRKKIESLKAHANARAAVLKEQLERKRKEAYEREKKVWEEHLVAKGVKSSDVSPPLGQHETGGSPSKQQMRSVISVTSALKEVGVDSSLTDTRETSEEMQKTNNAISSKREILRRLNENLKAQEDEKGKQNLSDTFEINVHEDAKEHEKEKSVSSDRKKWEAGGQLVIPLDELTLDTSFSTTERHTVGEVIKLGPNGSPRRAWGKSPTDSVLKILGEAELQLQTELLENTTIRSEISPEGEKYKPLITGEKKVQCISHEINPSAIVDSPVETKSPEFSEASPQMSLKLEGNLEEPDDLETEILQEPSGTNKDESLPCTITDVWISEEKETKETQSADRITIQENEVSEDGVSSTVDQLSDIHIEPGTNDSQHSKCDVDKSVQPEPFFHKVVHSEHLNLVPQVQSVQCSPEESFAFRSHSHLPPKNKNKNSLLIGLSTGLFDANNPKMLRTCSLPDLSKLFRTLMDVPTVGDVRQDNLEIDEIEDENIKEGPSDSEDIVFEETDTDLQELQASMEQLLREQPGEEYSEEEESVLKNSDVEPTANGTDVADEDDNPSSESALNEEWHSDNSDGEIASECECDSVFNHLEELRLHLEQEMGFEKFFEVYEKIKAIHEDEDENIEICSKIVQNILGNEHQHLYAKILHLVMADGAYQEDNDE

Compound	inhibition at 10 µM (MST3) [%]	inhibition at 10 µM (LYNB) [%]	inhibition at 10 µM (CAMK1A) [%]	inhibition at 10 µM (KIT T670I) [%]	inhibition at 10 µM (MINK) [%]	inhibition at 10 µM (PRKX) [%]	inhibition at 10 µM (PRKCE) [%]	inhibition at 10 µM (SYK) [%]	inhibition at 10 µM (ERK1) [%]	inhibition at 10 µM (PYK2) [%]	inhibition at 10 µM (P38G) [%]	inhibition at 10 µM (ZIPK) [%]	inhibition at 10 µM (MST2) [%]	inhibition at 10 µM (EPHA8) [%]	inhibition at 10 µM (CASEIN K1G2) [%]	inhibition at 10 µM (FLT4) [%]	inhibition at 10 µM (HGK) [%]	inhibition at 10 µM (PIM1) [%]	inhibition at 10 µM (ERK2) [%]	inhibition at 10 µM (EPHB1) [%]	other results
CSc1sc(-c2cc[nH]n2)c2c1C(=O)CCC2 [Example 1, 3-(Methylsulfanyl)-1-(1H-pyrazol-3-yl)-6,7-dihydro-2-benzothiophen-4(5H)-one]	-2.2	8.2	7.4	10.6	24.8	-0.6	-2.7	49.9	-2	4.2	23.3	8.1	12.3	-0.2	6.9	22.5	13.8	26.3	4.5	3	inhibition at 10 µM (CHK1): 0%; inhibition at 10 µM (CAMK2A): -4.8%; inhibition at 10 µM (AKT1): -3.2%; inhibition at 10 µM (TSSK1): 24%; inhibition at 10 µM (IGF1R): 5.4%; inhibition at 10 µM (NEK1): 9.1%; inhibition at 10 µM (PAK3): -13.1%; inhibition at 10 µM (MARK4): -9.4%; inhibition at 10 µM (RAF-1): 3.1%; inhibition at 10 µM (FLT1): 1.2%; inhibition at 10 µM (DCAMKL2): -0.8%; inhibition at 10 µM (PKD1): 5.5%; inhibition at 10 µM (MELK): 11%; inhibition at 10 µM (PKCI): -14%; inhibition at 10 µM (PRKCD): -14.8%; inhibition at 10 µM (FGFR4): 5.9%; inhibition at 10 µM (CDK5/P25): 9.5%; inhibition at 10 µM (RSK4): 2.9%; inhibition at 10 µM (AURB): 57.7%
CC1(C)CC(=O)c2c(SC3CCCC3)sc(-c3cc[nH]n3)c2C1 [Example 7, 3-(Cyclopentylsulfanyl)-6,6-dimethyl-1-(1H-pyrazol-3-yl)-6,7-dihydro-2-benzothiophen-4(5H)-one]	-10.9	-4.9	6	3	-1.5	-6.6	3.9	5.8	1.9	-0.6	-0.2	1	-2.3	-3.8	8.6	2	3.9	-16.3	-0.9	3.3	inhibition at 10 µM (CHK1): 8%; inhibition at 10 µM (CAMK2A): 1.7%; inhibition at 10 µM (AKT1): 0.1%; inhibition at 10 µM (TSSK1): 8.3%; inhibition at 10 µM (IGF1R): -3.7%; inhibition at 10 µM (NEK1): 1.4%; inhibition at 10 µM (PAK3): -170%; inhibition at 10 µM (MARK4): 11.6%; inhibition at 10 µM (RAF-1): -0.2%; inhibition at 10 µM (FLT1): 11.8%; inhibition at 10 µM (DCAMKL2): -4.2%; inhibition at 10 µM (PKD1): -10.6%; inhibition at 10 µM (MELK): 7.3%; inhibition at 10 µM (PKCI): -8.9%; inhibition at 10 µM (PRKCD): 12.6%; inhibition at 10 µM (FGFR4): -0.1%; inhibition at 10 µM (CDK5/P25): -11.7%; inhibition at 10 µM (RSK4): -5.6%; inhibition at 10 µM (AURB): -3.1%
